# From patent US20230043678A1, “USE OF 5-METHYLTETRAHYDROFOLATE” (priority 2019, published 2023)
# Where two headings read alike, the source gives them in different places.
# How the values were obtained:
# fetal rat heart = assay: Effects of homocysteine on fetal rats, heart slices (Example 7); assay type: in vivo, SD rats
# Experimental: In order to investigate an effect of homocysteine on the fetal heart, SD rats were selected, male and female rats were mated in a cage at a ratio of 1:1 overnight, a vaginal plug was checked the next morning, a day when the vaginal plug was found was regarded as day 0 of pregnancy, and pregnant mice were fed alone. A 1% homocysteine (HCY) solution was used, an injection volume was calculated according to an injection volume of 1 ml/100 g, a dose was (100 mg/kg/d), on the seventh day of pregnancy, the pregnant mice were intraperitoneally injected once a day until the 17th day of pregnancy and injected once on the 19th day of pregnancy, no fluid was withdrawn during each injection, the pregnant mice were subjected to chloral hydrate anesthesia on the 20th day of pregnancy, and a fetus was obtained by cesarean section. High-dose HCY model pregnant mice were investigated by the same method as above, the dose was 200 mg/kg/d and the other conditions were the same. Fetal rats were dissected, the heart was taken and sliced for observation, and the results were as follows.
# zebrafish embryos [1] = tested on: zebrafish embryos
# Experimental: Each experiment was conducted in triplicate. Zebrafish embryos were administrated at 2 h post fertilization (2 hpf) and termination was conducted at 72 hpf. The number of deaths in each group was recorded at 8, 24, 48 and 72 hpf. No food was fed during a dosing period, and the dead embryos were cleaned up in time.
# zebrafish embryos [2] = conditions: 30 mM HCHO + 10 mM L-5-MTHF-Ca
# zebrafish embryos [3] = conditions: in vivo
# Experimental: A table was listed below for details.
# 5-Selected concentrations of methyltetrahydrofolate in the experiment were recorded in the table.
# zebrafish embryos [4] = tested on: zebrafish embryos; remark: listed apart in the source
# Experimental: Transgenic zebrafish (fli-1:EGFP) were from the Model Animal Research Center of Nanjing University. Adult zebrafish aged less than 1 year were used for experiment and fed at a water pH value of 7±0.2, a temperature around 28° C. and a ratio of illumination to darkness of 14 h:10 h, and with Artemia salina eggs twice a day. Three zebrafish, one female, two males, were placed in a spawning box the night before and eggs were collected the next morning. Fish eggs were placed in an embryo culture medium (prepared with 0.2 g/L of sea salt) and cultured at 28° C.
# Zebrafish embryos were cultured in 24-well plates with 10 embryos per well at 2 hpf in a dosing manner, drug solutions of the above concentrations in the table were separately added, termination was conducted at 8 hpf, and the embryos were washed and transferred to an egg solution for continuous culture to 72 hpf. Dead embryos were cleaned up in time. Each experiment was conducted in triplicate.
# A phenotype of malformation was observed, the number of all abnormal zebrafish where the malformation was present was recorded and a malformation rate and a rescue rate of each group were calculated. Morphological defects, a heart rate, cardiac morphology and other indicators were observed and evaluated by an SMZ745T inverted stereomicroscope.
# zebrafish embryos [5] = assay: Teratogenic effect of folic acid on zebrafish embryos (Example 3)
# Experimental: (§1) Transgenic zebrafish (fli-1:EGFP) were from the Model Animal Research Center of Nanjing University. Adult zebrafish aged less than 1 were used for experiment and fed at a water pH value of 7±0.2, a temperature around 28° C. and a ratio of illumination to darkness of 14 h:10 h, and with Artemia salina eggs twice a day. Three zebrafish, one female, two males, were placed in a spawning box the night before and eggs were collected the next morning. Fish eggs were placed in an embryo culture medium (prepared with 0.2 g/L of sea salt) and cultured at 28° C. […] Dead embryos were cleaned up in time. A phenotype of malformation was observed, the number of all abnormal zebrafish where the malformation was present was recorded and a malformation rate and a rescue rate of each group were calculated. Morphological defects, a heart rate, cardiac morphology and other indicators were observed and evaluated by an SMZ745T inverted stereomicroscope.
# heart of fetal mice = assay: Effects of folic acid and 5-methyltetrahydrofolate on heart development of fetal/neonatal mice, histology (Example 10)
# Experimental: 75 7-week-old female C57BL/6J mice and 25 8-week-old male C57BL/6J mice were provided by Shanghai Lingchang Biotechnology Co., Ltd. with a certificate number of SCXK (Shanghai) 2018-0003. […] The female mice were randomly divided into 5 groups according to body weight: a solvent control group, a folic acid (151.66 μg/kg) group, a folic acid (303.32 μg/kg) group, a calcium 5-methyltetrahydrofolate (converted to folic acid, 151.66 μg/kg) group and a calcium 5-methyl tetrahydrofolate (converted to folic acid, 303.32 μg/kg) group. 1.1275 unit mass of the calcium 5-methyltetrahydrofolate equaled to 1 unit mass of the folic acid.
# 15 mice were in each group and numbered by a toe clipping method. The mice were intragastrically administrated once a day on the second day after grouping. One week after the pre-administration, male and female mice were caged at a ratio of […], a vaginal plug was observed every day from the next day, and a day when the vaginal plug was seen was recorded as day 0.5 of pregnancy. After 14 days of caging, the female mice stopped the administration, the male mice were removed, and the pregnant female mice were fed alone until litter.
# After the detection, thoracic and abdominal cavities of the mice were dissected, cardiac morphology and beating were observed under a stereoscopic microscope (SMZ168, Motic, Xiamen, Fujian, China), and photographs and video recordings were taken (Motic Image Plus 3.0, Motic, Xiamen, Fujian, China). The mice were sacrificed and the hearts, the livers, the kidneys and the lungs were harvested. The hearts and the livers of the neonatal mice were selected from each group and fixed with 4% paraformaldehyde, the fixed hearts and livers were embedded in paraffin, the embedded hearts and livers were sliced and the slices were stained with H&E. A half of the other tissues were immersed in RNA later for fixation and the other half were directly immersed in liquid nitrogen and frozen for a subsequent experiment.
# 1-day-old neonatal mice were sacrificed, the hearts were taken and fixed with 4% paraformaldehyde, the fixed hearts were embedded in paraffin, the embedded hearts were sliced, the slices were stained with H&E and pictures were taken under a normal microscope.
# zebrafish embryos [6] = tested on: zebrafish embryos; remark: listed apart in the source
# Experimental: as §1
# zebrafish embryos [7] = conditions: 6 mM FA + 10 mM L-5-MTHF-Ca
# Experimental: Transgenic zebrafish (fli-1:EGFP) were from the Model Animal Research Center of Nanjing University. Adult zebrafish aged less than 1 were used for experiment and fed at a water pH value of 7±0.2, a temperature around 28° C. and a ratio of illumination to darkness of 14 h:10 h, and with Artemia salina eggs twice a day. Three zebrafish, one female, two males, were placed in a spawning box the night before and eggs were collected the next morning. Fish eggs were placed in an embryo culture medium (prepared with 0.2 g/L of sea salt) and cultured at 28° C. […] Dead embryos were cleaned up in time. Each experiment was conducted in triplicate. […] A phenotype of malformation was observed, the number of all abnormal zebrafish where the malformation was present was recorded and a malformation rate and a rescue rate of each group were calculated. Morphological defects, a heart rate, cardiac morphology and other indicators were observed and evaluated by an SMZ745T inverted stereomicroscope.
# [8] = tested on: transcription factors (Nkx2.5, amhc, vmhc, hand2, has2, mef2a, mef2c, bmp2b, ephrinB2, ephB4) in zebrafish embryos; assay: qRT-PCR expression of transcription factors during development of zebrafish embryos (Example 4); assay type: in vivo; conditions: 8 mM L-5-MTHF-Ca, 24 and 48 hpf
# Experimental: In order to explore an effect of folic acid on epigenetics during development of the zebrafish embryos, the zebrafish embryos at different developmental stages were collected for testing. […] A fluorescent dye SYBR Green was used in the qRT-PCR experiment. The qRT-PCR was conducted according to the instructions of an SYBR Green qPCR Master Mix kit and a detection was conducted on an ABI (HT 7900) PCR instrument. […] An expression of β-actin was used as an internal reference and relative expression levels of other genes were calculated by a ΔΔCt method.
# [9] = Group D: calcium 5-methyltetrahydrofolate (converted to folic acid, 151.66 μg/kg) intragastric
# [10] = Group E: calcium 5-methyltetrahydrofolate (converted to folic acid, 303.32 μg/kg) intragastric
molecule,measurement,setting,value
"N[C@@H](CCS)C(=O)O [HCY, homocysteine]",fetal rat heart histology,fetal rat heart; high-dose HCY 200 mg/kg/d intraperitoneal to pregnant rats,led to red staining of muscle cytoplasm of the fetal rats
same,fetal rat heart histology,fetal rat heart; low-dose HCY 100 mg/kg/d intraperitoneal to pregnant rats,led to widening of myocardial trabeculae in fetal rats and atria was filled with red blood cells
Calcium 5-Methyltetrahydrofolate [L-5-MTHF-Ca],embryo survival rate,"zebrafish embryos [1]; 10 mM L-5-MTHF-Ca, dosed 2 hpf to 72 hpf",did not affect an embryo survival rate
same,heart rate of zebrafish embryos,"zebrafish embryos [1]; 10 mM, 48 hpf, vs control group",no difference in the heart rate
same,heart shape and lower intestinal network blood vessels,"zebrafish embryos [1]; 10 mM, 72 hpf",the heart in each group had a normal shape and the lower intestinal network blood vessels developed normally
same,body length of zebrafish embryos,"zebrafish embryos [1]; 10 mM, 72 hpf, vs control group",no difference
same,"pericardium edema and heart rate (48 hpf), body length (72 hpf)",zebrafish embryos [2],"had no effect on the pericardium edema, the heart rate and the body length of the zebrafish"
same,"survival rate of embryos, rescue",zebrafish embryos [2],can rescue an effect of the 30 mM HCHO on a survival rate of the embryos
same,embryo development,zebrafish embryos [2]; 8 hpf,delayed development of the zebrafish embryos
same,heart shape and lower intestinal network blood vessels,zebrafish embryos [2]; 72 hpf,normal heart shape and normal development of lower intestinal network blood vessels
same,"10 s heart rate (48 hpf), body length and malformation (72 hpf), rescue",zebrafish embryos [3],"could rescue malformed phenotypes of the bradycardia, the shortened body length and abnormally curved bodies"
same,rescue of embryonic development malformations,zebrafish embryos [3],could rescue embryonic development malformations induced by 2 and 4 mM Pb(NO3)2
same,"survival rate of embryos, rescue",zebrafish embryos [3],did not rescue an effect of the 2 and 4 mM Pb(NO3)2 on a survival rate of the embryos
same,embryo phenotype,zebrafish embryos [3]; zebrafish,"did not lead to obvious embryonic development delay, malformation and death"
same,"pericardium edema and 10 s heart rate (48 hpf), body length (72 hpf), rescue",zebrafish embryos [3]; zebrafish,"could rescue malformed phenotypes of the pericardium edema, the bradycardia and the shortened body length of the zebrafish to a certain extent"
same,"rate of pericardium edema, rescue","zebrafish embryos [4]; 0.6% EtOH + 10 mM L-5-MTHF-Ca, 48 hpf",could reduce a rate of pericardium edema
same,"heart rate, rescue","zebrafish embryos [4]; 0.9% and […] EtOH + 10 mM L-5-MTHF-Ca, 48 hpf",could relieve bradycardia
same,"survival rate, rescue",zebrafish embryos [4]; […] EtOH + 10 mM L-5-MTHF-Ca,could rescue the survival rate
same,"pericardium edema, rescue","zebrafish embryos [4]; […] EtOH + 10 mM L-5-MTHF-Ca, 48 hpf",had no effect on relieving pericardium edema
same,"lower intestinal network blood vessels, rescue","zebrafish embryos [4]; […] EtOH + 10 mM L-5-MTHF-Ca, 72 hpf",failed to ameliorate the defect
same,"body length, rescue",zebrafish embryos [4]; high concentration ([…]) of EtOH + 10 mM L-5-MTHF-Ca,relieve a shortened body length
same,survival rate of zebrafish,"zebrafish embryos [5]; 10 mM L-5-MTHF-Ca in 20 mM NaHCO3, 2-72 hpf",did not affect the survival rate of zebrafish
same,embryo coverage,"zebrafish embryos [5]; 10 mM L-5-MTHF-Ca, 8 hpf",covered completely
same,heart shape and lower intestinal network blood vessels,"zebrafish embryos [5]; 10 mM L-5-MTHF-Ca, 72 hpf",normal heart shape and normal development of lower intestinal network blood vessels
same,congenital heart disease in fetal mice,heart of fetal mice; 5-methyltetrahydrofolate group,no congenital heart disease is found
same,Development delay,heart of fetal mice; [9],0
same,Malformation cases,heart of fetal mice; [9],0
same,Sparse myocardial trabeculae,heart of fetal mice; [9],0
same,Ventricular defects/septal defects,heart of fetal mice; [9],0
same,Development delay,heart of fetal mice; [10],0
same,Malformation cases,heart of fetal mice; [10],0
same,Sparse myocardial trabeculae,heart of fetal mice; [10],0
same,Ventricular defects/septal defects,heart of fetal mice; [10],0
same,heart slices (H&E) of 1-day-old neonatal mice,heart of fetal mice; low-dose and high-dose methyltetrahydrofolate groups,had intact myocardium
same,"pericardium edema and 10 s heart rate (48 hpf), body length (72 hpf), rescue",zebrafish embryos [6]; 1.5 mM MTX + 10 mM L-5-MTHF-Ca,"could rescue malformed phenotypes of the pericardium edema, the bradycardia and the shortened body length"
same,rescue of embryonic development malformations,zebrafish embryos [6]; 1.5 mM MTX + 10 mM L-5-MTHF-Ca,could rescue embryonic development malformations induced by 1.5 mM MTX
same,"survival rate of embryos, rescue",zebrafish embryos [6]; 1.5 mM MTX + 10 mM L-5-MTHF-Ca,no significant difference from that of a control group
same,Malformation rate,zebrafish embryos [6]; 1.5 mM MTX after adding L-5-MTHF-Ca (10 mM),10%
same,"10 s heart rate (48 hpf) and body length (72 hpf), rescue",zebrafish embryos [7],could rescue malformed phenotypes of the bradycardia and the shortened body length
same,"survival rate of embryos, rescue",zebrafish embryos [7],can rescue an effect of the 6 mM FA on a survival rate of the embryos
same,embryo development,zebrafish embryos [7]; 8 hpf,delayed development of the zebrafish embryos
same,embryo phenotype,zebrafish embryos [7]; 24 hpf,alleviated the malformation
same,embryo phenotype,zebrafish embryos [7]; 48 hpf,"led to pericardium edema, dyspigmentation, and intersegmental vascular hypoplasia of zebrafish"
same,"pericardium edema, rescue",zebrafish embryos [7]; 48 hpf,could not rescue the pericardium edema
same,embryo phenotype,zebrafish embryos [7]; 72 hpf,led to developmental disorders of lower intestinal network blood vessels of the zebrafish
same,expressions of the various genes vs normal control,[8],did not affect the expressions of the various genes
